From paper PMC12641067 (Clinical Pharmacology and Therapeutics, 2025)
“And” between values parts separate entries of the source, which are not always exact repeats. Equal values may be shown once. Where a name gives a salt, the structure may show the parent alone. Read-outs that look alike come from different tables or passages of the source. Each block holds one compound with its values, some of them ahead of it.

What was measured:
[1] = monkey, in vivo; cited from earlier work
[2] = human, in vivo; cited from earlier work
[3] = GCDCA-S CLh and fe inferred from other reported clinical DDI studies; assay type: in vivo, human
Protocol: Verification of GCDCA-S fe estimated in this study
The validity of GCDCA-S CLh and renal excretion fraction (fe) estimated in this study was evaluated by incorporating the GCDCA-S mean plasma concentration profile in other reported clinical DDI studies into the developed POPPK models. In the absence of inhibitors, under steady-state conditions (where dC/dt=0), GCDCA-S ksyn is expressed as shown in Equation 13. In the presence of rifampicin, at t=Tmax (where dC/dt=0), GCDCA-S ksyn is expressed as shown in Equation 14. By solving equation 13 and 14, CLh can be derived as shown in Equation 15. The CLh and fe values inferred from data obtained in each […]
ksyn = Cbaseline × CLh + Cbaseline × CLR (Eq.13)
k = C × CLh + C × CL (Eq.14) […]
CL = CL × Cmax−Cbaseline > CL × Cmax−Cbaseline (Eq.15)
h R Cbaseline − Cmax × 1 R Cbaseline where Cbaseline (µM) is plasma baseline concentration, Cmax (µM) is maximum plasma concentration, ksyn (µmol/h) is the zero-order synthesis rate, CLh (L/h) is hepatic clearance, CLR (L/h) is renal clearance, Cu,RIF (µM) is unbound plasma concentration of rifampicin, Ki,u,OATP1B3 (µM) is unbound inhibition constant against OATP1B3 for rifampicin.
Table S6. GCDCA-S CLh and fe inferred from other reported clinical DDI studies Reported values Inferred values Ref […]
Cbaseline, plasma baseline concentration of GCDCA-S; Cmax, maximum plasma concentration of GCDCA-S; fe, fraction excreted in urine of GCDCA-S; CLh, hepatic clearance of GCDCA-S; CLR, renal clearance […]
a Average concentration from 0 to 24hours. b The CLR value reported by Willemin et al.17 was used for calculation. Even when using the reported CLR values from other studies, the corresponding increase in CLh ensures that the estimated fe value in this calculation remains unchanged.

[4] = Synthesis rate of precursor bile acids and inferred GCDCA-S ksyn; set-up: species or system human
Excerpt: Verification of GCDCA-S ksyn estimated in this study
Literature data on the SULT2A1-mediated sulfation rate of GCDCA were not available. To evaluate the validity of GCDCA-S ksyn estimated by the POPPK model, GCDCA-S ksyn was assumed to be constrained by the synthesis rate of its precursor bile acids, and an inference was made based on the reported ksyn value of the corresponding precursors (CDCA and GCDCA).
In the absence of an inhibitor, ksyn of bile acids in the turnover model is represented by Equation 11.
Under steady-state conditions (where dC/dt=0), and given that the values of CLR of GCDCA-S and its corresponding precursors are relatively small compared to their CLh, ksyn of bile acids is expressed by Equation 12.10,11 It has been reported that the biliary excretion of bile acid sulfates is slower than that of their unsulfated forms,10,12 and assuming CLh,GCDCA-S < CLh,precursors, GCDCA-S ksyn was inferred, as […]
dt = [ksyn − (Cbile acid × CLh + Cbile acid × CLR)] × Vc (Eq.11)
ksyn = Cbile acid × CLh (Eq.12) where C (µM) is plasma concentration, ksyn (µmol/h) is the zero-order synthesis rate, CLh (L/h) is hepatic clearance, CLR (L/h) is renal clearance, VC (L) is the volume of distribution.
Table S5. GCDCA-S ksyn inferred from the ksyn of its corresponding precursors Biomarker Plasma baseline (nM) Denovo ksyn (µmol/h)
Reported value Ref Reported value Ref Notes
Biomarker Plasma baseline (nM) Inferred ksyn (µmol/h)
< 3.0 Based on information 1 […]
< 2.2 Based on information 3 aAveraged Cmean value of the baseline and control groups. bSynthesis rate of unconjugated chenodeoxycholic acid. cAveraged synthesis rate of chenodeoxycholic acid reported in six studies. dSynthesis rate of chenodeoxycholic acid-glycine.

[5] = Plasma baseline concentration of bile acid biomarkers in clinical studies; assay type: in vivo, human; conditions: Study #3 (unpublished data); average concentration 0 to 24 hours, no inhibitor
Protocol: (§1) Individual plasma and urine data of GCDCA‐S in healthy subjects were obtained from three clinical studies. Tatosian et al.[18] (study #1) consisted of two occasions: on both occasions, a microdose probe drug cocktail for multiple clinically relevant transporters was administered, with a single oral dose of 600 mg rifampicin co‐administered on the second occasion (n = 6; 3 males, 3 females). Willemin et al.[22] (study #2) was a two‐phase, cross‐over study with a 21‐day washout period between the two phases. […] Study #3 consists of unpublished data from the same study design as reported by Willemin et al. (n = 12; 12 males).[22]
Details of the clinical studies are in Table S1 . […] Simulations were conducted in agreement with the reported study designs. The median (50th percentile) of the predicted concentrations, along with the 90% prediction interval (5th and 95th percentiles), was plotted and compared against the observed data.
Table S1. […]
Cbaseline, GCDCA-S plasma baseline concentration in the absence of inhibitors. a Plasma concentration of subjects with SLCO1B1 c.521TT genotype were used for model verification. b In both occasions, Letermovir 480mg was administered, and it has been reported that single-dose Letermovir led to small increases in GCDCA-S concentrations vs. predose levels. c Calculated based on the reported plasma AUC0-24h.

[6] = baseline and interaction profile after rifampicin administration; cited from earlier work
[7] = Population PK turnover model of GCDCA-S (plasma and urine data); assay type: in vivo, human
Protocol: as §1
(§2) Models were evaluated using visual predictive check (VPC) plots, goodness‐of‐fit (GOF) plots, parameter uncertainty, and changes in objective function. Model visualization and simulations were conducted in MATLAB 2024a (MathWorks, Natick, MA, USA) and Graph Pad Prism 10.2.2 (GraphPad software, La Jolla, CA, USA).
(§3) The structural model for rifampicin was based on our previous report,[33] and represents a one‐compartment model with zero‐order absorption and linear elimination.
Different functions for evaluating diurnal fluctuation (e.g., Bateman, Power function) were investigated and applied to the synthesis rate in the GCDCA‐S model.
(§4) The models for rifampicin, probenecid, and GCDCA‐S incorporated both inter‐individual variability for a number of model parameters (assuming log‐normal distribution) and residual unexplained variability (using a combination of proportional and additive error models).

[8] = cited from earlier work
OATP1B transporters = conditions: in vitro; cited from earlier work
[9] = Population PK model of probenecid (plasma data); assay type: in vivo, human; conditions: population estimate (RSE%)
Protocol: as §1, §2, §3, §4

[10] = cited from earlier work; remark: listed apart in the source
[11] = set-up: method as in PMID 19131563, PMID 1150035, PMID 955496, PMID 34686523; conditions: healthy human volunteers; cited from earlier work
[12] = final model (without sex effect), population estimate (RSE%)
[13] = model with sex effect, population estimate (RSE%)
[14] = information 2 (CDCA, average of six studies) and 3 (chenodeoxycholic acid-glycine)
[15] = averaged Cmean value of the baseline and control groups

SMILES: C[C@H](CCC(=O)NCC(=O)O)[C@H]1CC[C@H]2[C@@H]3[C@H](O)C[C@@H]4C[C@H](OS(=O)(=O)O)CC[C@]4(C)[C@H]3CC[C@]12C [GCDCA‐S, Glycochenodeoxycholic acid 3‐O‐sulfate]
fraction excreted in urine (f e) [1]: < 1% | CLR [2]: 0.37 L/h | fe (inferred) ([3]; from data of ref 2): < 6.6% | fe (inferred) ([3]; from data of ref 3): < 6.9% | fe (inferred) ([3]; from data of ref 4): < 3.3% | fe (inferred) ([3]; from data of ref 16): < 3.1% | Inferred ksyn ([4]; based on information 1): < 3.0 µmol/h | Inferred ksyn ([4]; based on information 2): < 2.8 µmol/h | Inferred ksyn ([4]; based on information 3): < 2.2 µmol/h | Cbaseline [5]: 87 nM | difference in plasma concentrations, chronic kidney disease patients relative to healthy individuals [6]: no significant difference | fraction excreted in urine (f e) ([7]; estimated from POP-PK model): < 5% | V c,GCDCA–S ([7]; final model (without sex effect), fixed at value initially estimated from the POP-PK model): 4.8 L and 4.8 (FIXED) L | CL h,GCDCA–S [7, 12]: 15 (13) L/h | ksyn [7, 12]: 1.0 (18) μmol/h | biliary excretion as share of elimination ([7]; from POP-PK model): ~ 95% and > 95% | Vc, GCDCAS ([7]; model with sex effect, fixed): 4.8 L | CLR, GCDCAS [7, 13]: 0.31 (8) L/h | CLh, GCDCAS [7, 13]: 14 (13) L/h | COVSEX (fractional change in ksyn in women relative to men) [7, 13]: 0.065 (404) | ksyn [7, 13]: 1.0 (18) μmol/h | Plasma baseline ([8]; human, in vivo): 85 nM

clearance ([9]; both sexes, human, plasma, oral, 500 mg): 15.8 mL/min | V PROB [9]: 17 (10) L | ka PROB ([9]; 500 mg oral approx. every 6 h): 1.1 (37) /h
SMILES: CCCN(CCC)S(=O)(=O)c1ccc(C(=O)O)cc1 [PROB, probenecid]
inhibition of OATP1B transporters (OATP1B transporters): weakly inhibits

SMILES: C[C@H](CCC(=O)O)[C@H]1CC[C@H]2[C@@H]3[C@H](O)C[C@@H]4C[C@H](O)CC[C@]4(C)[C@H]3CC[C@]12C [CDCA, chenodeoxycholic acid]
Denovo ksyn [10, 14]: 17 µmol/h | Denovo ksyn ([10]; synthesis rate of unconjugated chenodeoxycholic acid (information 1)): 18 µmol/h | Plasma baseline [8, 15]: 510 nM

SMILES: C[C@H](CCC(=O)O)[C@H]1CC[C@H]2[C@@H]3CC[C@@H]4C[C@H](OS(=O)(=O)O)CC[C@]4(C)[C@H]3CC[C@]12C [lithocholic acid sulfate]
fraction excreted in urine (f e) [11]: < 5%

SMILES: CC(CCC(=O)NCC(=O)O)C1CCC2C3C(O)CC4CC(O)CCC4(C)C3CCC12C (centres unmarked) [GCDCA, glycochenodeoxycholic acid]
Denovo ksyn [10, 14]: 14 µmol/h | Plasma baseline [8, 15]: 540 nM
